Measured values taken from patent US9428773B2, “Methods of producing acetoin and 2,3-butanediol using photosynthetic microorganisms” (The Regents of the University of California, priority 2012, dated 2016).
One block for each compound: values may come before it.

Legend:
S. elongatus [1] = settings: cited from earlier work
S. elongatus [2] = assay: growth of S. elongatus over 72 h in the presence of 23BD or acetoin (toxicity)
Method: (§1) Unless otherwise specified, S. elongatus strains were cultured in BG-11 medium (45) with the addition of 50 mM NaHCO3. Cells were grown at 30° C. with rotary shaking (100 rpm) and light (55 μE s^−1 m^−2) provided by four 86 cm 20 W fluorescent tubes 5 cm above the cell cultures. Cell growth was monitored by measuring OD730.
(§2) To evaluate acetoin and 23BD toxicity, we tested the growth of S. elongatus over 72 h in the presence of 23BD or acetoin.

S. elongatus [3] = test system: S. elongatus
Method: as §1, §2

SMILES: CC(C)CO [isobutanol]
concentration that prevents growth of S. elongatus (S. elongatus [1]): 1000 µg/mL

SMILES: CC(=O)C(C)O (centres unmarked) [acetoin]
decrease of growth of S. elongatus (S. elongatus [2]; 0.2 g/L acetoin, 72 h): approximately 50%
concentration at which growth of S. elongatus stopped (S. elongatus [2]; 72 h): 1000 µg/mL
concentration above which toxic in S. elongatus (S. elongatus [2]; FIG. 2A): above 0.1 g/L

growth of S. elongatus in the presence of 10 g/L 23BD (S. elongatus [3]): barely inhibited
growth of S. elongatus in the presence of 30 g/L 23BD (S. elongatus [3]): still exhibited growth
SMILES: CC(O)C(C)O (centres unmarked) [23BD, 2,3-butanediol]
toxicity in S. elongatus (in words) (S. elongatus [3]): low toxicity

SMILES: CC(C)C=O [isobutyraldehyde]
concentration that prevents growth of S. elongatus (S. elongatus [1]): 1000 µg/mL
